{"source": "paper PMC8920929", "about": "(The Journal of Biological Chemistry, 2022)", "key": {"TRPV3-L508F": {"biological_target": "T1, TRPV3-L508F (Homo sapiens, UniProt Q8NET8, L508F)", "T1 sequence (Q8NET8 1-790 L508F)": "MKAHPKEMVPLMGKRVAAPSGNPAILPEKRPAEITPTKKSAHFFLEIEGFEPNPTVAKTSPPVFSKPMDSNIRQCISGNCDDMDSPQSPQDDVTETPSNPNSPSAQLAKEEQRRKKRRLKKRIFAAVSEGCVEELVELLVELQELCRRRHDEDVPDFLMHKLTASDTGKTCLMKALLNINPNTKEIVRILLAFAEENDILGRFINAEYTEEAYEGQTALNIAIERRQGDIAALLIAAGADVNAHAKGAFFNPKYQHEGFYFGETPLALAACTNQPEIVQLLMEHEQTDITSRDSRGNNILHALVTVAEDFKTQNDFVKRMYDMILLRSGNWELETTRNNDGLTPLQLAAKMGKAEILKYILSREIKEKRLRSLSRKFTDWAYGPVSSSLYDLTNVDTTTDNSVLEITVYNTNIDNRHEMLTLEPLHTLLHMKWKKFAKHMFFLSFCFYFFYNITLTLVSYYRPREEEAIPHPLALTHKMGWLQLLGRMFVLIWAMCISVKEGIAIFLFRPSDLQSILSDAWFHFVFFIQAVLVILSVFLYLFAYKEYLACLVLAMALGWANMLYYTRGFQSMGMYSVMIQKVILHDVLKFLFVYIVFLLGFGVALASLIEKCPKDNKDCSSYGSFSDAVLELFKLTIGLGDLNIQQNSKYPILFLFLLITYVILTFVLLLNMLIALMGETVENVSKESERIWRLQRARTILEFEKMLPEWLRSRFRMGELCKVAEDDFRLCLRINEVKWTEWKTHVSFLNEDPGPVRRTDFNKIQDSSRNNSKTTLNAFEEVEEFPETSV", "test": "Whole-cell and single-channel recordings of the TRPV3-L508F mutant", "format": "cell-based", "conditions": "carvacrol 0.3-3.0 mM or 50 μM 2-APB"}, "TRPV3-D512A": {"biological_target": "T2, TRPV3-D512A (Homo sapiens, UniProt Q8NET8, D512A)", "T2 sequence (Q8NET8 1-790 D512A)": "T1 sequence (Q8NET8 1-790 L508F) with F508L, D512A", "test": "Whole-cell and single-channel recordings of the TRPV3-D512A mutant", "format": "cell-based"}, "mice": {"tested_on": "mice", "conditions": "mice, but not TRPV3-KO mice; ref [33], [34]; cited from earlier work"}, "TRPV3-R509A": {"biological_target": "T3, TRPV3-R509A (Homo sapiens, UniProt Q8NET8, R509A)", "T3 sequence (Q8NET8 1-790 R509A)": "T1 sequence (Q8NET8 1-790 L508F) with F508L, R509A", "test": "Whole-cell and single-channel recordings of the TRPV3-R509A mutant", "format": "cell-based"}}, "note": "Substitutions are numbered along the chain they refer to."}
{"smiles": "Cc1ccc(C(C)C)cc1O", "note": "[carvacrol, 5-Isopropyl-2-methylphenol]", "values": [{"measurement": "activation of TRPV3 L508F mutant channel", "setting": "TRPV3-L508F", "result": "ablated TRPV3 activation"}, {"measurement": "EC50", "setting": "TRPV3-D512A", "result": "3.21 ± 0.48", "unit": "mM"}, {"measurement": "right shift of channel activation versus WT TRPV3", "setting": "TRPV3-D512A; D512A versus WT", "result": "over 10 fold"}, {"measurement": "sensitivity of TRPV3 D512A mutant channel", "setting": "TRPV3-D512A; carvacrol 0.3-3.0 mM", "result": "decreased the sensitivity"}, {"measurement": "pruritus on pharmacological activation of TRPV3", "setting": "mice", "result": "induces pruritus"}, {"measurement": "EC50", "setting": "TRPV3-R509A", "result": "2.93 ± 0.11", "unit": "mM"}, {"measurement": "right shift of channel activation versus WT TRPV3", "setting": "TRPV3-R509A; R509A versus WT", "result": "over 10 fold"}, {"measurement": "sensitivity of TRPV3 R509A mutant channel", "setting": "TRPV3-R509A; macroscopic and single-channel current levels", "result": "decreased the channel sensitivity"}]}
